Test results: patent US20060252800A1, “Anti-leishmania agent” (priority 2003, published 2006)

Tested on: Leishmania (L. major)
Test: Leishmania protozoa proliferation inhibition assay
Assay type: cell-based
Details: for OD level (number of viable Leishmania protozoa): 48 hours at 27° C., absorbance 450 nm minus 630 nm; for IC50: calculated from the graphs of FIGS. 1 to 4 (concentration vs number of viable leishmania protozoa), read-out: Concentration inhibiting 50% leishmania proliferation
Protocol: After dissolving each of the obtained compounds in dimethylsulfoxide (hereinafter referred to as DMSO), the resultant was diluted by 9 steps in Medium 199 medium (Invitrogen) to the indicated concentration, filtrated with a membrane filter, and each of the filtration was made as a sample solution. […] By keeping the solution at 27° C., incubation was performed under 5% CO2, for 48 hours. Then, TetraColor ONE (tradename: Seikagaku Corporation) reagent was added thereto and further incubated for 6 hours. Then, the absorbance at a wavelength of 450 nm was measured for the 96-well microtiter plate with a microplate reader, the wave length of 630 nm was made as reference wave length, and in order to exclude background effect, the absorbance at 630 nm was excluded from the one at 450 nm, and the OD level was calculated as a level to indicate the number of viable Leishmania protozoa. The assay was performed by three wells at a time for each concentration of each sample, and the mean level was made as OD level. […] Amphotericin B was used as positive control. […] Inhibiting effect against […] protozoa for each sample was similar or more compared with that of Amtephotericin B.

[1] = Table 3, sample concentration 0.001 mg/ml
[2] = Table 3, sample concentration 0.002165 mg/ml
[3] = Table 3, sample concentration 0.0072171 mg/ml
[4] = Table 3, sample concentration 0.02406 mg/ml
[5] = Table 3, sample concentration 0.08019 mg/ml
[6] = Table 3, sample concentration 0.2673 mg/ml
[7] = Table 3, sample concentration 0.891 mg/ml
[8] = Table 3, sample concentration 2.97 mg/ml
[9] = Table 3, sample concentration 9.9 mg/ml
[10] = Table 3, sample concentration 33 mg/ml
[11] = Table 2, sample concentration 0.0001 mg/ml
[12] = Table 2, sample concentration 0.0007 mg/ml
[13] = Table 2, sample concentration 0.002 mg/ml
[14] = Table 2, sample concentration 0.008 mg/ml
[15] = Table 2, sample concentration 0.025 mg/ml
[16] = Table 2, sample concentration 0.084 mg/ml
[17] = Table 2, sample concentration 0.279 mg/ml
[18] = Table 2, sample concentration 0.93 mg/ml
[19] = Table 2, sample concentration 3.1 mg/ml
[20] = Table 2, sample concentration 2E−04 mg/ml
[21] = Table 1, sample concentration 0.001 mg/ml
[22] = Table 1, sample concentration 0.016384 mg/ml
[23] = Table 1, sample concentration 0.04096 mg/ml
[24] = Table 1, sample concentration 0.1024 mg/ml
[25] = Table 1, sample concentration 0.256 mg/ml
[26] = Table 1, sample concentration 0.64 mg/ml
[27] = Table 1, sample concentration 1.6 mg/ml
[28] = Table 1, sample concentration 4 mg/ml
[29] = Table 1, sample concentration 10 mg/ml
[30] = Table 1, sample concentration 25 mg/ml, mean of three wells

C[C@@H]1[C@H](O)[C@@H](C)/C=C/C=C/C=C/C=C/C=C/C=C/C=C/[C@H](O[C@@H]2O[C@H](C)[C@@H](O)[C@H](N)[C@@H]2O)C[C@@H]2O[C@](O)(C[C@@H](O)C[C@@H](O)[C@H](O)CC[C@@H](O)C[C@@H](O)CC(=O)O[C@H]1C)C[C@H](O)[C@H]2C(=O)O [Amphotericin B, reference compound]
OD level (number of viable Leishmania protozoa) (Table 1, positive control line, concentration 0.001 mg/ml): 0.428
OD level (number of viable Leishmania protozoa) (Table 1, positive control line, concentration 0.0121094 mg/ml): 0.394
OD level (number of viable Leishmania protozoa) (Table 1, positive control line, concentration 0.0242188 mg/ml): 0.373
OD level (number of viable Leishmania protozoa) (Table 1, positive control line, concentration 0.0484375 mg/ml): 0.352
OD level (number of viable Leishmania protozoa) (Table 1, positive control line, concentration 0.096875 mg/ml): 0.349
OD level (number of viable Leishmania protozoa) (Table 1, positive control line, concentration 0.19375 mg/ml): 0.044
OD level (number of viable Leishmania protozoa) (Table 1, positive control line, concentration 0.3875 mg/ml): 0.036
OD level (number of viable Leishmania protozoa) (Table 1, positive control line, concentration 0.775 mg/ml): 0.036
OD level (number of viable Leishmania protozoa) (Table 1, positive control line, concentration 1.55 mg/ml): 0.036
OD level (number of viable Leishmania protozoa) (Table 1, positive control line, concentration 3.1 mg/ml): 0.034
OD level (number of viable Leishmania protozoa) [1]: 0.351
OD level (number of viable Leishmania protozoa) [2]: 0.338
OD level (number of viable Leishmania protozoa) [3]: 0.325
OD level (number of viable Leishmania protozoa) [4]: 0.331
OD level (number of viable Leishmania protozoa) [5]: 0.311
OD level (number of viable Leishmania protozoa) [6]: 0.273
OD level (number of viable Leishmania protozoa) [7]: 0.051
OD level (number of viable Leishmania protozoa) [8]: 0.029
OD level (number of viable Leishmania protozoa) [9]: 0.029
OD level (number of viable Leishmania protozoa) [10]: 0.030
IC50: 140 nM

CN1/C(=c2\s/c(=C\c3cccc[n+]3C)n(Cc3ccccc3)c2=O)Sc2ccccc21.Cc1ccc(S(=O)(=O)[O-])cc1 [I (a), 2-[{5-(3-methyl-2(3H)-benzothiazolylidene)-4-oxo-3-benzyl-2-thiazolidinylidene}methyl]-1-methylpyridinium=p-toluenesulfonate]
OD level (number of viable Leishmania protozoa) [11]: 0.356
OD level (number of viable Leishmania protozoa) [12]: 0.361
OD level (number of viable Leishmania protozoa) [13]: 0.383
OD level (number of viable Leishmania protozoa) [14]: 0.469
OD level (number of viable Leishmania protozoa) [15]: 0.172
OD level (number of viable Leishmania protozoa) [16]: 0.088
OD level (number of viable Leishmania protozoa) [17]: 0.043
OD level (number of viable Leishmania protozoa) [18]: 0.034
OD level (number of viable Leishmania protozoa) [19]: 0.035
OD level (number of viable Leishmania protozoa) [20]: 0.356
IC50: 410 nM

CCn1c(=O)/c(=C2\Sc3ccccc3N2C)s/c1=C\c1cccc[n+]1Cc1ccc(C(=O)O)cc1.[Br-] [I (d), 1-(p-carboxyphenyl)methyl-2-[3-ethyl-{5-(3-methyl-2(3H)-benzothiazolylidene)-4-oxo-2-thiazolidinylidene}methyl]pyridinium=bromide]
OD level (number of viable Leishmania protozoa) [11]: 0.360
OD level (number of viable Leishmania protozoa) [12]: 0.359
OD level (number of viable Leishmania protozoa) [13]: 0.348
OD level (number of viable Leishmania protozoa) [14]: 0.364
OD level (number of viable Leishmania protozoa) [15]: 0.384
OD level (number of viable Leishmania protozoa) [16]: 0.346
OD level (number of viable Leishmania protozoa) [17]: 0.360
OD level (number of viable Leishmania protozoa) [18]: 0.333
OD level (number of viable Leishmania protozoa) [19]: 0.242
OD level (number of viable Leishmania protozoa) [20]: 0.356
IC50: 5300 nM

C=CCn1c(=Cc2cccc[n+]2C)sc(=C2Sc3ccccc3N2C)c1=O.Cc1ccc(S(=O)(=O)[O-])cc1 [IV (a), 2-[{5-(3-methyl-2(3H)-benzothiazolylidene)-4-oxo-3-(2-propenyl)-2-thiazolidinylidene}methyl]-1-methylpyridinium=p-toluenesulfonate]
OD level (number of viable Leishmania protozoa) [21]: 0.470
OD level (number of viable Leishmania protozoa) [22]: 0.541
OD level (number of viable Leishmania protozoa) [23]: 0.488
OD level (number of viable Leishmania protozoa) [24]: 0.385
OD level (number of viable Leishmania protozoa) [25]: 0.157
OD level (number of viable Leishmania protozoa) [26]: 0.095
OD level (number of viable Leishmania protozoa) [27]: 0.047
OD level (number of viable Leishmania protozoa) [28]: 0.035
OD level (number of viable Leishmania protozoa) [29]: 0.031
OD level (number of viable Leishmania protozoa) [30]: 0.032
IC50: 320 nM

CCn1c(=Cc2cc[n+](C)c3ccccc23)sc(=C2Sc3ccccc3N2C)c1=O.Cc1ccc(S(=O)(=O)[O-])cc1 [IV (b), 4-[{5-(3-methyl-2(3H)-benzothiazolylidene)-4-oxo-3-ethyl-2-thiazolidinylidene}methyl]-1-methylquinolium=p-toluene sulfonate]
OD level (number of viable Leishmania protozoa) [11]: 0.361
OD level (number of viable Leishmania protozoa) [12]: 0.354
OD level (number of viable Leishmania protozoa) [13]: 0.362
OD level (number of viable Leishmania protozoa) [14]: 0.380
OD level (number of viable Leishmania protozoa) [15]: 0.409
OD level (number of viable Leishmania protozoa) [16]: 0.211
OD level (number of viable Leishmania protozoa) [17]: 0.102
OD level (number of viable Leishmania protozoa) [18]: 0.044
OD level (number of viable Leishmania protozoa) [19]: 0.037
OD level (number of viable Leishmania protozoa) [20]: 0.351

CCn1c(=Cc2ccc3ccccc3[n+]2C)sc(=C2Sc3ccccc3N2C)c1=O.[I-] [IV (c), 2-[{5-(3-methyl-2(3H)-benzothiazolylidene)-4-oxo-3-ethyl-2-thiazolidinylidene}methyl]-1-methylquinolinium=iodide]
OD level (number of viable Leishmania protozoa) [21]: 0.472
OD level (number of viable Leishmania protozoa) [22]: 0.470
OD level (number of viable Leishmania protozoa) [23]: 0.474
OD level (number of viable Leishmania protozoa) [24]: 0.496
OD level (number of viable Leishmania protozoa) [25]: 0.398
OD level (number of viable Leishmania protozoa) [26]: 0.158
OD level (number of viable Leishmania protozoa) [27]: 0.117
OD level (number of viable Leishmania protozoa) [28]: 0.069
OD level (number of viable Leishmania protozoa) [29]: 0.032
OD level (number of viable Leishmania protozoa) [30]: 0.032
IC50: 820 nM

CCn1c(=Cc2sc3ccccc3[n+]2C)sc(=C2C=Cc3ccccc3N2C)c1=O.Cc1ccc(S(=O)(=O)[O-])cc1 [IV (d)]
OD level (number of viable Leishmania protozoa) [1]: 0.346
OD level (number of viable Leishmania protozoa) [2]: 0.357
OD level (number of viable Leishmania protozoa) [3]: 0.339
OD level (number of viable Leishmania protozoa) [4]: 0.341
OD level (number of viable Leishmania protozoa) [5]: 0.359
OD level (number of viable Leishmania protozoa) [6]: 0.348
OD level (number of viable Leishmania protozoa) [7]: 0.365
OD level (number of viable Leishmania protozoa) [8]: 0.395
OD level (number of viable Leishmania protozoa) [9]: 0.344
OD level (number of viable Leishmania protozoa) [10]: 0.035
